The subject of the assay is COV434 cells. Nature of the assay: NAD cell assay (NAD cycling method), cellular NAD+ levels. It counts as cell-based, human. The settings on record: NAD levels in COV434 cells, 200 uM, 4 hr; for Fold increase compared to NMN: normalised to protein; for Fold Increase compared to NMN on a molar basis: mole per mole comparison of salt and parent. The protocol:
NAD levels were assayed based on the NAD cycling method of Zhu and Rand, PLoS One (2012), herein incorporated by reference. COV434 cells were maintained in 6 well plates and treated with the indicated compounds at a concentration of 200 uM for 4 hr. Media was removed, plates were washed in cold PBS and cells were scraped down in NAD extraction buffer containing 10 mM nicotinamide, 50 mM Tris HCl, 0.1% Triton X-100. Cells were homogenised by sonication for 5 seconds, and samples were centrifuged at 7,000 g for 5 min at 4 degrees. Aliquots were taken for later protein assay, and samples were then passed through 10 kDa amicon filters at 14,000 g, 30 min at 4 degrees to remove proteins from the sample. Each sample was measured in technical triplicate, with 25 μL sample added to 100 μL ADH cycling mix (0.2 mg/ml alcohol dehydrogenase enzyme, 2% ethanol, 100 mM Tris pH 8.5). Samples were allowed to cycle for 10 min at room temperature, followed by 50 μL addition of an MTT/PMS solution (0.1 mM phenazine methosulfate, 0.8 mM 3-(4,5-Dimethylthiazol-2-yl)-2,5-diphenyltetrazolium bromide), 100 mM Tris-HCl pH 8.5). Plates were then incubated for 15 min and absorbance was measured at 570 nm. NAD concentrations were extrapolated from a standard curve, and normalised to protein concentrations determined by BCA protein assay.
The fold increase is obtained through a direct comparison on a mole per mole between the compared salt and its parent counterpart.

On to `NC(=O)c1ccc[n+]([C@@H]2O[C@H](COP(=O)([O-])O)[C@@H](O)[C@H]2O)c1` [NMN, nicotinamide mononucleotide], for which the “Fold increase compared to NMN” value is 1.0 and the “Fold Increase compared to NMN on a molar basis” value amounted to 1.0.
Regarding `NC(=O)c1ccc[n+]([C@@H]2O[C@H](COP(=O)([O-])[O-])[C@@H](O)[C@H]2O)c1.[Na+]` [Compound I-001, Sodium ((2R,3S,4R,5R)-5-(3-carbamoylpyridin-1-ium-1-yl)-3,4-dihydroxytetrahydrofuran-2-yl)methyl phosphate], the “Fold increase compared to NMN” value is 1.7 and the “Fold Increase compared to NMN on a molar basis” value was 1.78.

(Values after patent US20250145652A1, “INORGANIC SALTS OF NICOTINAMIDE MONONUCLEOTIDE AS ANTI-AGING AGENTS” (Life Biosciences Inc., priority 2018, published 2025).)
